In patent US7553484B2, “Modulating neuronal outgrowth via the major histocompatibility complex class I (MHC I) molecule” (The Regents of the University of California, priority 2001, dated 2009):
Entries after “also recorded” stand apart in the source; their conditions may differ.

Test system: retinal explant neurite outgrowth
Assay: Retina (alone) explant culture with and without recombinant MHC I (rsMHC I)
Format: cell-based, mouse
Conditions: for neurite outgrowth with rsMHC I plus compound compared with control levels / neurite outgrowth in cultures containing rsMHC I, compound added vs rsMHC I alone: ACPD 50 uM, cAMP 20 uM, Forskolin 5 uM; for overall protection against the effects of rsMHC I (summary): FIG. 5; for neurite outgrowth in cultures containing rsMHC I, compound added vs rsMHC I alone: 3 days
Experimental: To rule out the possibility that the MHC I-tg thalami inhibit retinal growth indirectly due to an alteration in the milieu of neuroactive molecules they secrete, wt retinas were cultured alone, in the presence, or absence of recombinantly produced MHC I D^b (rMHC I). The rMHC I was obtained by transfecting COS cells with a recombinant plasmid that directs the expression of a MHC I D^b lacking a membrane anchor and harvesting the conditioned media.
A truncated MHC I ^Db mini-gene (containing exons 1-4 plus a stop codon) was subcloned into pIRES (Invitrogen). Due to the lack of a transmembrane spanning region (exons 5 and 6), this MHC I molecule is secreted. COS cells were transfected (using lipofectamine, GIBCO) with the parental plasmid, or the plasmid encoding soluble MHC I D^b. […] Forty eight hours later, the conditioned media was harvested and added to fresh explant co-cultures of wt retina and thalamus at final dilutions of 1:1, 1:4, 1:20 or 1:100. To some cultures, monoclonal antibodies to MHCI D^b or D^k were added to both the matrigel (before its solidification) and the media (0.005 mg/ml). Both the conditioned media and the antibodies were coded. The co-cultures were incubated for 4-5 days, fixed, and scored in a blinded fashion as described above. Duplicates of each group were tested simultaneously in 4 separate experiments.
E14 day embryos from C57Bl6 and Balb/c mice were dissected in Leibovitz's L-15 media (Gibco BRL). The retinas were isolated and placed in a matrigel matrix (Growth Factor Reduced Basement membrane matrix, Collaborative Biomedical Products) in a chamber slide (Fisher LabTech). The slides were then incubated at 37° C. for 60 minutes to solidify the gel. Neurobasal medium (Gibco BRL), containing L-glutamine, antibiotics and 1× B27 supplement) was added to each chamber (0.25 ml). Inhibition of axon outgrowth by rsMHC I was tested by addition of conditioned culture media from COS cells containing rsMHC I or control media to the normal culture media. Compounds that modulate cAMP levels were added at the following concentrations to the matrigel and the culture media: Forskolin (5 uM), a drug that activates adenyl cyclase and endogenous production of cAMP; and Rp-cAMPS (20 uM), the R diasteriomer of adenosine 3′,5′-(cyclic) phosphorothioate, a non-hydrolyzable antagonist of cAMP. The cultures were incubated further at 37° C., 5% CO2. After incubating for 3 days, the experiment was terminated by replacing the buffer with 4% PFA and storing the slides at 4° C. Statistical Analysis was done by Student's test.

## N[C@@]1(C(=O)O)CC[C@@H](C(=O)O)C1 [ACPD, 1-amino-(1S,3R)-cyclo pentanedicarboxylic acid]
  neurite outgrowth with rsMHC I plus compound compared with control levels: did not return to control levels
  overall protection against the effects of rsMHC I (summary): partially protective
Rp-cAMPS 20 uM
  neurite outgrowth in cultures containing rsMHC I, compound added vs rsMHC I alone: significantly enhanced neurite outgrowth; also recorded: partially neutralize the effects of rsMHC I

## Nc1ncnc2c1ncn2[C@@H]1O[C@@H]2COP(=O)(O)O[C@H]2[C@H]1O [cAMP, cyclic adenosine monophosphate]
  neurite outgrowth with rsMHC I plus compound compared with control levels: not statistically different from control levels
  overall protection against the effects of rsMHC I (summary): partially protective
Rp-cAMPS 20 uM
  neurite outgrowth in cultures containing rsMHC I, compound added vs rsMHC I alone: significantly enhanced neurite outgrowth; also recorded: partially neutralize the inhibitory action of rMHC I

## Nc1ncnc2c1ncn2[C@@H]1O[C@@H]2CO[P@@](O)(=S)O[C@H]2[C@H]1O [Rp-cAMPS, R diasteriomer of adenosine 3′,5′-(cyclic) phosphorothioate]
  overall protection against the effects of rsMHC I (summary): very efficient at blocking the effects of rsMHC I
Rp-cAMPS 20 uM
  retinal explant outgrowth in control cultures (media alone, no rsMHC I): no effect
  neurite outgrowth in cultures containing rsMHC I, compound added vs rsMHC I alone: completely prevented the inhibitory effects of rsMHC I; also recorded: can reverse this inhibitory effect
Rp-cAMPS 20 uM, listed as Rp-cAMPs
  neurite outgrowth in cultures containing rsMHC I, compound added vs rsMHC I alone: completely prevented the inhibitory effects of rMHC I; also recorded: prevented the inhibitory action of rMHC I
